What was measured:
Design in all cases: scale not given: the % may be the effect or the level left
[1] = molecular target: T1, Serine/threonine-protein kinase Sgk1 (Homo sapiens) (UniProt O00141); assay: Inhibition of human SGK1 assessed as enzyme activity at 1 uM using KGSGSGRPRTSSFAEG as substrate preincubated for 20 mins followed by [gamma-33P]-ATP addition and measured after 120 mins by radiometric Hot-SpotSM Kinase assay relative to control
T1 sequence (whole entry): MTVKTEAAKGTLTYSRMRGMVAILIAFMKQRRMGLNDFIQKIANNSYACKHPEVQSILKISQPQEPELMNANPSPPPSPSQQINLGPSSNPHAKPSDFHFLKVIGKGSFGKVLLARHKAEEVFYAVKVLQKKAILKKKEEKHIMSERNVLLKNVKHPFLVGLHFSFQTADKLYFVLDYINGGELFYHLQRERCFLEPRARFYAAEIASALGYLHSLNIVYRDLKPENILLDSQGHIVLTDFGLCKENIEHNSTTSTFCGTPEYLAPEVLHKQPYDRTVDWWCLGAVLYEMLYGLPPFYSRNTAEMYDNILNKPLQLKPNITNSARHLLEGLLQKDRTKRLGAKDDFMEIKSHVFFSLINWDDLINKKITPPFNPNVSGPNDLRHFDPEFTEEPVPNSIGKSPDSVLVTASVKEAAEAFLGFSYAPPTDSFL

[2] = molecular target: Non-receptor tyrosine-protein kinase TYK2 (Homo sapiens) (UniProt P29597); assay: Inhibition of human TYK2 assessed as enzyme activity at 1 uM using KKSRGDYMTMQIG as substrate preincubated for 20 mins followed by [gamma-33P]-ATP addition and measured after 120 mins by radiometric Hot-SpotSM Kinase assay relative to control
Non-receptor tyrosine-protein kinase TYK2 (Homo sapiens), sequence (P29597 whole entry, the tested form may be a part): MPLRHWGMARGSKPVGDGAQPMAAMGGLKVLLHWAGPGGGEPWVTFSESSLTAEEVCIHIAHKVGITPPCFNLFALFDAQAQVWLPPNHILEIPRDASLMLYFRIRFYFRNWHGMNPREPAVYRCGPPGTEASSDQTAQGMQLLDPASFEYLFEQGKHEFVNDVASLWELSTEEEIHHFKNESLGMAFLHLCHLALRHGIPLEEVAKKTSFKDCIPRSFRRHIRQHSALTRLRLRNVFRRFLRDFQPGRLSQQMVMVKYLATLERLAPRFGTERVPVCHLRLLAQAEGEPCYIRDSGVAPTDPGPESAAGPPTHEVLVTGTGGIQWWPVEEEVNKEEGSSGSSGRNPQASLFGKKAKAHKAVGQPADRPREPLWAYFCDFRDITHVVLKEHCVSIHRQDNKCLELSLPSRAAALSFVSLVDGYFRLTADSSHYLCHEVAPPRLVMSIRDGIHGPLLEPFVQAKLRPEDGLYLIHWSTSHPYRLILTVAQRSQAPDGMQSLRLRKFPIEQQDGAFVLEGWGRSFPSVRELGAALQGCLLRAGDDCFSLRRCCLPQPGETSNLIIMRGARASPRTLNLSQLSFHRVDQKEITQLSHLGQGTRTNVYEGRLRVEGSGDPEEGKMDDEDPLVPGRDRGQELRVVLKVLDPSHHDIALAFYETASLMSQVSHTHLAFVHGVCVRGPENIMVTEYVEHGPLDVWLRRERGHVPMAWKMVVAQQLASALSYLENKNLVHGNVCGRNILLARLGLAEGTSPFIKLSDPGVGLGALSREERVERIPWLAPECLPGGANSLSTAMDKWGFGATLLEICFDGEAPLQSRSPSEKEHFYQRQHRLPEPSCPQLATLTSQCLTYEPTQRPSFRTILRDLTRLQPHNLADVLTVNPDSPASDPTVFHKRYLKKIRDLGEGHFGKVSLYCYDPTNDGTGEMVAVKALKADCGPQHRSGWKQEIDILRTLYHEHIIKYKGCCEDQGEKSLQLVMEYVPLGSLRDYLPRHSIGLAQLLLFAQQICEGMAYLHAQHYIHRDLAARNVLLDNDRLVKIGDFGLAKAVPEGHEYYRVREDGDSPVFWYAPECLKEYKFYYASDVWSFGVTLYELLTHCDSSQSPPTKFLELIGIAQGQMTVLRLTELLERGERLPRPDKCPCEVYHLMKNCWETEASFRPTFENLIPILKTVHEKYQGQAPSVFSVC

[3] = molecular target: LIM domain kinase 2 (Homo sapiens) (UniProt P53671); assay: Inhibition of human LIMK2 assessed as enzyme activity at 1 uM using cofilin 2 as substrate preincubated for 20 mins followed by [gamma-33P]-ATP addition and measured after 120 mins by radiometric Hot-SpotSM Kinase assay relative to control
LIM domain kinase 2 (Homo sapiens), sequence (P53671 whole entry, looked up, the tested form may be a part): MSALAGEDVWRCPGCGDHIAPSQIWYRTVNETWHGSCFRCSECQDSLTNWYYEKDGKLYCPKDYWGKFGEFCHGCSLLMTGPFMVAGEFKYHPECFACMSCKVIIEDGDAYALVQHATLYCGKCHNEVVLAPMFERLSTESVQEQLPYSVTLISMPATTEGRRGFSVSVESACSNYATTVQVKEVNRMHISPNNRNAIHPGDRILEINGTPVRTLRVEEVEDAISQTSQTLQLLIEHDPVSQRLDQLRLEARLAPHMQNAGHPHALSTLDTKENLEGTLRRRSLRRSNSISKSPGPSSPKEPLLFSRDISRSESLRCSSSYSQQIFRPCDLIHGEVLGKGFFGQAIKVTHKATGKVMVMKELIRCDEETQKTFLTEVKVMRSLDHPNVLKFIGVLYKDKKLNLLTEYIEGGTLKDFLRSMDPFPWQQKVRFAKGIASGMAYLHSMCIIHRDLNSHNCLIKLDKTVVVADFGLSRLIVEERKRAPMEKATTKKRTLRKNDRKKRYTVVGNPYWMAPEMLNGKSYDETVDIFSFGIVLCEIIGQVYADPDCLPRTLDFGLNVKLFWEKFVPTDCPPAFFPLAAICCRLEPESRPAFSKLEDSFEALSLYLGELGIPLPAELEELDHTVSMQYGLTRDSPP

[4] = molecular target: T2, Myosin light chain kinase (Homo sapiens) (UniProt Q32MK0); assay: Inhibition of human MYLK3 assessed as enzyme activity at 1 uM using KKRPQRRYSNVF as substrate preincubated for 20 mins followed by [gamma-33P]-ATP addition and measured after 120 mins by radiometric Hot-SpotSM Kinase assay relative to control
T2 sequence (whole entry): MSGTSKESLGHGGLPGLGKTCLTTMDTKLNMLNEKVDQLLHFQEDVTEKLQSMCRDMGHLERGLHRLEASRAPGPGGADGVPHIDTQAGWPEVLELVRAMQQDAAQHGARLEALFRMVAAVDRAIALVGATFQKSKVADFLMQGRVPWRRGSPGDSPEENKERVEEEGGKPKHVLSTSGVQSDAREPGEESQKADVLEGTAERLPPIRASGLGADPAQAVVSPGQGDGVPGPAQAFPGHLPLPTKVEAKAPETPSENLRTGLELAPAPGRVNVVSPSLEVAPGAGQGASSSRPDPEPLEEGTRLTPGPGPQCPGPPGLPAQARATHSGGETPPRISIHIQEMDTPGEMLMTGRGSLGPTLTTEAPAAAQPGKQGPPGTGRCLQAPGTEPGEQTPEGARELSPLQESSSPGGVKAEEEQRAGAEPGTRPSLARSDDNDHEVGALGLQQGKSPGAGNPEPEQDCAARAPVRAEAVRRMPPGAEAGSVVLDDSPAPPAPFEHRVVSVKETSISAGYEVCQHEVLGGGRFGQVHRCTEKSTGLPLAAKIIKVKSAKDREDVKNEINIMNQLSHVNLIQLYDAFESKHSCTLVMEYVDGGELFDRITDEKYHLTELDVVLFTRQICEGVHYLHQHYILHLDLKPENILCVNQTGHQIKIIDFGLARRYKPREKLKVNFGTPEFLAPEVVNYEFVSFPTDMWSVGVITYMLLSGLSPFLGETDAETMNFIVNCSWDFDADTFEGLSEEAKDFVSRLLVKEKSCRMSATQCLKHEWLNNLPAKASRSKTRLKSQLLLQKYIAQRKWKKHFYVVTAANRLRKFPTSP

[5] = molecular target: T3, Serine/threonine-protein kinase D3 (Homo sapiens) (UniProt O94806); assay: Inhibition of human PKCnu assessed as enzyme activity at 1 uM using KKLNRTLSVA as substrate preincubated for 20 mins followed by [gamma-33P]-ATP addition and measured after 120 mins by radiometric Hot-SpotSM Kinase assay relative to control
T3 sequence (whole entry): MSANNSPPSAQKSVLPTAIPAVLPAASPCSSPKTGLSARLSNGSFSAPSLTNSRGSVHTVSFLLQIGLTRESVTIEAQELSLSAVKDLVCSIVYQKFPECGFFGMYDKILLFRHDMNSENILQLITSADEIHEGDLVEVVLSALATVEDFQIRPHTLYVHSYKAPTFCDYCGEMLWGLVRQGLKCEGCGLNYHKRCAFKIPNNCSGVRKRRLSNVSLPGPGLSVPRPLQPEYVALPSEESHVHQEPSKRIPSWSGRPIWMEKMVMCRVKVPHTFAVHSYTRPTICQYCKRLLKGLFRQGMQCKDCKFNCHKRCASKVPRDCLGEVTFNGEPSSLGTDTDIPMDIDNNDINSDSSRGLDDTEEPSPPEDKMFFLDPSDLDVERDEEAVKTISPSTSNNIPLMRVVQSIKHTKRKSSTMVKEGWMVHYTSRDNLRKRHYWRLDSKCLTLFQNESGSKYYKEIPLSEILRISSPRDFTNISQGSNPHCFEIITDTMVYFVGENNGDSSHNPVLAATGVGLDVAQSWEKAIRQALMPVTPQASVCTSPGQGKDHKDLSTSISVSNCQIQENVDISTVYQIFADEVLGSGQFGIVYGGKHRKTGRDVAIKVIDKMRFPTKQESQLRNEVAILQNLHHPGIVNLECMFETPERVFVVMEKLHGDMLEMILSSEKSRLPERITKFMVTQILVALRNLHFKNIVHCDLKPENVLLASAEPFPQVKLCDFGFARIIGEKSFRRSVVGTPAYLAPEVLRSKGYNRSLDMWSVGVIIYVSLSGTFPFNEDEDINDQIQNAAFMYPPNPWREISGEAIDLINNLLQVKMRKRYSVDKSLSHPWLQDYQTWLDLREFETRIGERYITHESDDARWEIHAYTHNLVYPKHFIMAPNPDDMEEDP

[6] = molecular target: PAS domain-containing serine/threonine-protein kinase (Homo sapiens) (UniProt Q96RG2); assay: Inhibition of human PASK assessed as enzyme activity at 1 uM using KKLNRTLSFAEPG as substrate preincubated for 20 mins followed by [gamma-33P]-ATP addition and measured after 120 mins by radiometric Hot-SpotSM Kinase assay relative to control
PAS domain-containing serine/threonine-protein kinase (Homo sapiens), sequence (Q96RG2 whole entry, the tested form may be a part): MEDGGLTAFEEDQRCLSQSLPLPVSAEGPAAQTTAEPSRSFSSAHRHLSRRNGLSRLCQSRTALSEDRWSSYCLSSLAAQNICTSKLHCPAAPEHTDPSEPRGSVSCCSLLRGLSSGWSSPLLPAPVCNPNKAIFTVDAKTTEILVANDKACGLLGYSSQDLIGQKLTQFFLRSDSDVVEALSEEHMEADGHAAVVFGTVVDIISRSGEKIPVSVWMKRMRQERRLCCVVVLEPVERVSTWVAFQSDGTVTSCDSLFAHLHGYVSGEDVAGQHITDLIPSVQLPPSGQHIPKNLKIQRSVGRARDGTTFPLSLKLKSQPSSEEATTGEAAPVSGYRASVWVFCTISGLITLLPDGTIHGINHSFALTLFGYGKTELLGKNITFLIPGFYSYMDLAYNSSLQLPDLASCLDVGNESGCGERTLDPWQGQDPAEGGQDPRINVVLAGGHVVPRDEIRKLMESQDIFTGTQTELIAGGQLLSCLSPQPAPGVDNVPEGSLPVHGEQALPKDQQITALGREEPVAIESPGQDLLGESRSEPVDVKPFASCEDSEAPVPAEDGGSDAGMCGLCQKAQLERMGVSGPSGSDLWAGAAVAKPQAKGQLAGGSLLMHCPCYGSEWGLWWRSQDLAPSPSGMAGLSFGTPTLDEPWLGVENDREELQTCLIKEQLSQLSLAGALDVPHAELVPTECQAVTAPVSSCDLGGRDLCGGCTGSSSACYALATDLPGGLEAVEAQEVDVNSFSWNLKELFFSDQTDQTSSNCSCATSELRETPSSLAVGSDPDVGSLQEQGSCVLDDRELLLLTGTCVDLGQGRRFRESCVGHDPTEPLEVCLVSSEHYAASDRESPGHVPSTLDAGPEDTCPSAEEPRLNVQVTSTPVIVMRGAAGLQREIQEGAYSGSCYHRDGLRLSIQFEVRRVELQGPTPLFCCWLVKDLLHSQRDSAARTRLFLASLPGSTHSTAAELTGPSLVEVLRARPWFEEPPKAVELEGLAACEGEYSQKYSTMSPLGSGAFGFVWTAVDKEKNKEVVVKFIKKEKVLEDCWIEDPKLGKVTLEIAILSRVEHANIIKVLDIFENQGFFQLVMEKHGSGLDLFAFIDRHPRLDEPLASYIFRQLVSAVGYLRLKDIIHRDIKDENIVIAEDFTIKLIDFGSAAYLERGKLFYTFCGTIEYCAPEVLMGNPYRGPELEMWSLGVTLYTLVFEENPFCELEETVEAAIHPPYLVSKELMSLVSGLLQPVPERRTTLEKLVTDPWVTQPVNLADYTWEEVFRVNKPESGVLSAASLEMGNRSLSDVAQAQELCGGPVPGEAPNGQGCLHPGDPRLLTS

SMILES | Activity [1] [%] | Activity [2] [%] | Activity [3] [%] | Activity [4] [%] | Activity [5] [%] | Activity [6] [%]
C[C@H](Nc1ncnc2nc[nH]c12)c1cc2cccc(Cl)c2c(=O)n1-c1ccccc1 | 102 | 96.3 | 104 | 98.2 | 94.8 | 95.3
CC[C@H](Nc1ncnc2[nH]cnc12)c1nc2cccc(F)c2c(=O)n1-c1ccccc1 | 105 | 96.6 | 96 | 91.8 | 85.5 | 99.6
CC(C)Oc1ccc(-c2nn([C@@H](C)c3oc4ccc(F)cc4c(=O)c3-c3cccc(F)c3)c3ncnc(N)c23)cc1F [UMBRALISIB] | 102 | 102 | 98.6 | 105 | 98.4 | 98.7
